Source: patent publication US20160331853A1, “COMPOSITIONS FOR RADIOTHERAPY AND USES THEREOF” (The Trustees of Columbia University in the City of New York, priority 2014, published 2016)
Values joined by “and” are separate entries in the source; they are usually repeats but may differ in a detail not shown here. Equal values may be shown once.

Tests used:
[1] = Example 3: binding Avidin to 100 mg sterile talc, Pierce 660 nm total protein assay of supernatants and washes
Method: Collect the supernatant liquid from two tubes containing the two highest concentrations of Avidin at varying points.
4. Run total protein assay using Pierce microplate kit and read plate in plate reader.
6. Wash all tubes in PBS two times, collecting the supernatant liquid from each wash ONLY from the two highest concentrations of Avidin (tubes labeled 1-2b, 1-2c, and 2-2b, 2-2c).
7. Continue to wash 3× with 0.5 mL of 0.2% EDTA.
8. Collect the supernatant from each wash and transfer to the new tubes only from the original tubes with the highest concentration of Avidin (50 μM and 5 μM). Collect only the FIRST wash with EDTA solution for the other tubes.
10. Run the total protein assay (see e.g., Example 1) using all the collected supernatant liquid.
The shape is similar to a nugget, and the calculations will substitute it's geometry with spheres. […] Less than 5% is below that range, and above that range.

[2] = Example 4: amount of Avidin saturating 100 mg talc, Pierce total protein assay of supernatant; type: binding
From the text: 2. Collect the supernatant from each tube but discard the pellet.
3. Run the Pierce total protein assay using the following dilutions of the collected supernatant.
4. Read plate in the plate reader (absorbance assay) at 660 nm wavelength.

[3] = Coupling of avidin to talc, binding capacity (general description)
[4] = Example 14: talc bound to HRP- and cold Avidin, 48 hours incubation in PBS containing 10% FBS, OD 450 nm; type: physicochemical; conditions: 48 hours in PBS containing 10% FBS
Method: Purpose: To check how strong the conjugate of hot/cold Avidin to Talc is. […] Absorbance will be checked twice—once before washing with PBS containing 10% FBS and after 48 hours, washing will be done.
1. Prepare 10 mL of 40 ng/mL (or 260 μM) HRP Avidin in 1×PBS using 5.75 mg/mL or 32.5 uM of HRP Avidin stock solution.
6. Weigh 8 mg of Avidin (cold Avidin), then resuspend it in 2 mL of PBS containing 40 ng/mL of “hot” Avidin. So the solution will now be 40 ng/mL hot Avidin+4 mg/mL of Cold Avidin. Label this tube as #1.
14. […] Two identical microplates need to be set up, labeling them as: plate#I and plate#2. Design of the plate:
3. Wash both plates 3× with 300 μL PBS.
5. […] Mix constantly, cover plate with Aluminum foil.
6. Add 100 μL of TMB to samples in plate #1.
8. After incubation with TMB is over, add 100 μL of Stop Solution 2.
9. Read absorbance at 450 nm using the plate reader.
3. Collect 100 μL supernatant from samples except native controls and load on same plate.
4. Wash plate except supernatant samples 3× with 300 μL PBS.
6. Add 100 μL of TMB to all samples in plate#2.
8. After incubation with TMB is over add 100 μL of Stop Solution 2.

[5] = Example 2: Avidin and Avidin-Rhodamine binding to talc after PBS and 0.2% EDTA washes, fluorescent microscope; conditions: 100 mg talc; 3x PBS, 3x 0.2% EDTA washes
Method: The resulting mixtures were then washed with PBS and then washed with 0.2% EDTA.
3. Mix 1 mL of 100 μM of Avidin with 500 μL of 30.3 μM of Avidin Rhodamine (keep lights off).
4. […] Mix well to bring the dry talc powder to evenly distributed reaction solution.
8. Place tubes on the rotator and incubate overnight at 4° C.
5. Continue to wash all “b” labeled tubes with 0.2% EDTA. Wash 3× in 0.5 mL EDTA.
7. View slides under fluorescent microscope.

[6] = Example 12: hot and cold Avidin mix binding to talc, repeat with controls, OD 450 nm
Method: The following Example repeated the hot/cold experiment shown in Example 10, with the addition of multiple controls.
1. Prepare 10 mL of 40 ng/mL (or […]) HRP Avidin in 1×PBS using 5.75 mg/mL or 32.5 μM of HRP Avidin stock solution.
6. Weigh 8 mg of Avidin (cold Avidin), then resuspend it in 2 mL of PBS that contains 40 ng/mL of “hot” Avidin. So the solution will now be 40 ng/mL hot Avidin+4 mg/mL of Cold Avidin. Label this tube as #1.
7. Make 3 mL of 1:10 dilution of solution in Tube #1 and make labeled Tube #2 containing 2.7 mL of 40 ng/mL in Hot Avidin solution in PBS+300 μL of Tube #1. The solution in the tube will contain 40 ng/mL of Hot Avidin+400 μg of Cold Avidin.
8. Make 1:2 dilution of solution in Tube #2 using as a diluted solvent of […] of Hot Avidin in PBS. Added 1 mL of Hot Avidin+1 mL of Tube #2. The final concentration will be 40 ng/mL of Hot Avidin+200 μg/mL of Cold Avidin. Label this tube as Tube #3.
9. Make 1:2 dilution of solution in Tube #3, using as a solvent of 40 ng/mL Hot Avidin in PBS Prepare 2 mL of solution: 1 mL of 40 ng/mL of Hot Avidin in PBS+1 mL of Tube #3 The final concentration will be 40 ng/mL of hot Avidin+100 μg/mL of Cold Avidin. Label this tube as Tube #4.
3. Wash the plate 3× with 300 μL PBS containing 10% FBS.
7. Add 100 μL of Stop Solution 2.
8. Read absorbance at 450 nm using the plate reader.

## Avidin: Avidin from egg white (Sigma, Cat. A9275), unlabeled (cold) Avidin
[1]; 198.4 μg Avidin + 100 mg talc
  AVIDIN in supernatant after incubation: 13.7 μg/0.5 ml
  Avidin binded to talc: 184.7 µg
[1]; 198.4 μg Avidin added
  Saturation of AVIDIN to the combine surface of 100 mg talc: 2.48 μg/cm^2
[1]; 198.4 μg Avidin in 0.5 ml + 100 mg talc
  AVIDIN in supernatant after incubation: 27.4 µg/mL
[1]; 198.4 μg, 1st wash with EDTA
  Amount of Avidin removed by wash: 15.8 µg/mL
[1]; 198.4 μg, 1st wash with PBS
  Amount of Avidin removed by wash: 31.4 µg/mL
[1]; 198.4 μg, 2nd wash with EDTA
  Amount of Avidin removed by wash: 19.8 µg/mL
[1]; 198.4 μg, 2nd wash with PBS
  Amount of Avidin removed by wash: 27.6 µg/mL
[1]; 198.4 μg, 3rd wash with EDTA
  Amount of Avidin removed by wash: 13 µg/mL
[1]; 198.4 μg, 3rd wash with PBS
  Amount of Avidin removed by wash: 32.7 µg/mL
[1]; 1650.3 μg Avidin + 100 mg talc
  AVIDIN in supernatant after incubation: 1185 μg/0.5 ml
  Avidin binded to talc: 465.3 µg
[1]; 1650.3 μg Avidin added
  Saturation of AVIDIN to the combine surface of 100 mg talc: 6.25 μg/cm^2
[1]; 1650.3 μg Avidin in 0.5 ml + 100 mg talc
  AVIDIN in supernatant after incubation: 2370 µg/mL
[1]; 1650.3 μg, 1st wash with EDTA
  Amount of Avidin removed by wash: 13.2 µg/mL
[1]; 1650.3 μg, 1st wash with PBS
  Amount of Avidin removed by wash: 307.4 µg/mL
[1]; 1650.3 μg, 2nd wash with EDTA
  Amount of Avidin removed by wash: 12.3 µg/mL
[1]; 1650.3 μg, 2nd wash with PBS
  Amount of Avidin removed by wash: 67.3 µg/mL
[1]; 1650.3 μg, 3rd wash with EDTA
  Amount of Avidin removed by wash: 13.2 µg/mL
[1]; 1650.3 μg, 3rd wash with PBS
  Amount of Avidin removed by wash: 40.3 µg/mL
[1]; 3x PBS, 3x 0.2% EDTA
  release of Avidin from talc surface during washes: Only first wash removed quantifiable amounts of Avidin from talc surface
[1]; highest concentration of Avidin (50 μM), 100 mg talc
  saturation of talc particles: not fully saturated
[2]; 330 μg/ml Avidin added
  Avidin binded with talc: 110.4 µg/mL
  Avidin in supernatant: 219.6 μg, ml
  Avidin per talc surface: 1.5 μg/cm2
[2]; 3300 μg/ml Avidin added
  Avidin binded with talc: 2452.7 µg/mL
  Avidin in supernatant: 847.3 μg, ml
  Avidin per talc surface: 33.0 μg/cm2 and 33 μg/cm2
[2]; 6600 μg/ml Avidin added
  Avidin binded with talc: 4631.5 µg/mL
  Avidin in supernatant: 1968.5 μg, ml
  Avidin per talc surface: 62.3 μg/cm2
[2]; 13200 μg/ml Avidin added
  Avidin binded with talc: 7952.7 µg/mL
  Avidin in supernatant: 5247.3 μg, ml
  Avidin per talc surface: 106.9 μg/cm2
[2]; 19800 μg/ml Avidin added
  Avidin binded with talc: 12166.7 µg/mL
  Avidin in supernatant: 7633.3 μg, ml
  Avidin per talc surface: 163.5 μg/cm2
[2]; increasing concentrations of Avidin
  saturation of talc particles: not fully saturated
[3]
  avidin bound by talc: > 2 nanograms of avidin per mg of talc
[4]
  stability of binding of Avidin to talc: unchanged at 48 hours
[5]
  binding to talc after washing: remained bound to talc despite multiple washes
[6]; 1 mg talc, Cold Avidin only 100 ug/mL
  Efficiency of binding, OD: 0.31 OD
[6]; 1 mg talc, Cold Avidin only 200 ug/mL
  Efficiency of binding, OD: 0.27 OD
[6]; 1 mg talc, Cold Avidin only 400 ug/mL
  Efficiency of binding, OD: 0.3 OD
[6]; 1 mg talc, Cold Avidin only 4 mg/mL
  Efficiency of binding, OD: 0.33 OD
[6]; 5 mg talc, Cold Avidin only 100 ug/mL
  Efficiency of binding, OD: 1.38 OD
[6]; 5 mg talc, Cold Avidin only 200 ug/mL
  Efficiency of binding, OD: 1.4 OD
[6]; 5 mg talc, Cold Avidin only 400 ug/mL
  Efficiency of binding, OD: 1.01 OD
[6]; 5 mg talc, Cold Avidin only 4 mg/mL
  Efficiency of binding, OD: 1.23 OD
